Measured values from patent publication US20240109865A1, “INDAZOLE COMPOUNDS AS KINASE INHIBITORS” (TYRA BIOSCIENCES, INC., priority 2020, published 2024).

Columns and labels:
[1] = biological target: FGFR3-BAIAP2L1 Ba/F3 cells (Homo sapiens, UniProt P22607); experiment: Ba/F3 cell viability assay (CellTiter-Glo 2.0), FGFR3-BAIAP2L1 Ba/F3; assay type: cell-based; details: for Ba/F3 FGFR1/FGFR3 Selectivity: FGFR3 > FGFR1 selectivity ratio in Ba/F3 FGFR fusion cell based assays; for IC50: read-out: Ba/F3 Cells FGFR3 (IC50 nM), FGFR3-BAIAP2L1 Ba/F3 cells, 48 hours, Cell Titer Glo 2.0
Text: (§1) Experimental Purpose: Recombinant kinase fusions are transduced into parental Ba/F3, which becomes dependent upon this constitutive kinase activity for IL3-independent survival. Inhibition of kinase activity leads to cell death, which is monitored using CellTiter-Glo® 2.0 (Promega) which measures intracellular ATP concentration that in turn serves as a marker for viability. FGFR1-BCR Ba/F3 and FGFR3-BAIAP2L1 Ba/F3 were obtained from Advanced Cellular Dynamics (Seattle, WA)
(§2) Cell Viability Assay Procedure: Cell Titer-Glo® 2.0 Luminescent cell viability assay reagent was purchased from Promega (Madison, WI). FGFR1-BCR Ba/F3 and FGFR3-BAIAP2L1 Ba/F3 cells were cultured in RPMI1640 media supplemented with 10% fetal bovine serum. Cultures were maintained at 37° C. in a humidified atmosphere of 5% C02 and 95% air.
(§3) Cells were plated in 96-well clear bottom/white plates (Corning #3903) at 10,000 cells/well in 100 μl of media, incubated overnight. The next day, test compound DMSO stock solutions were made at 10 mM and 2 μM final concentration. Compounds were then added to cells in a 9-dose, 10-fold dilution series starting at 30 μM with an HP 300e Digital Dispenser (each dose was applied in triplicate). DMSO was backfilled to each well up to 301 nL total volume of test compound+DMSO, and a total of 301 nL DMSO was added to a control/no test compound well in triplicate. The cells in cell culture plates were incubated with the compounds at 37° C. and 5% C02 for 48 hours. Then 50 μl of Cell Titer Glo 2.0 reagent was added to each well of the cell culture plates. The contents were covered from light and mixed on an orbital shaker at room temperature for 10 min. Luminescence was recorded by a Synergy H1 Microplate Reader (Biotek, Winooski, VT). Cells were assessed as a percentage of DMSO only treated control cells. Curves were plotted and IC50 values were calculated using the GraphPad Prism 8 program based on a sigmoidal dose-response equation (4 parameter).

[2] = biological target: FGFR1 (Homo sapiens (Human), UniProt P11362); experiment: Kinase assay, binding constants (Kd), kinase-tagged T7 phage, qPCR
How it was run: (§4)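 Competition binding: kinase-tagged T7 phage lysates mixed with immobilized biotinylated ligand on streptavidin beads plus compound (11-point 3-fold dilution series, 0.9% DMSO final). Bound kinase eluted with free ligand and quantified by qPCR. Kd from Hill equation fit, slope fixed at −1.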

[3] = biological target: FGFR2 (Homo sapiens (Human), UniProt P21802); experiment: as above
How it was run: as §4

[4] = biological target: FGFR3 (Homo sapiens (Human), UniProt P22607); experiment: as above
How it was run: as §4

[5] = biological target: FGFR4 (Homo sapiens (Human), UniProt P22455); experiment: as above
How it was run: as §4

[6] = biological target: FGFR3 (V555M) (Homo sapiens (Human), UniProt P22607, V555M); experiment: as above; details: V555M mutant
How it was run: as §4

[7] = biological target: FGFR1-BCR Ba/F3 cells (Homo sapiens, UniProt P11362); experiment: Ba/F3 cell viability assay (CellTiter-Glo 2.0), FGFR1-BCR Ba/F3; assay type: cell-based; details: read-out: Ba/F3 Cells FGFR1 (IC50 nM), 48 hours, Cell Titer Glo 2.0
Text: as §1, §2, §3

FGFR3-BAIAP2L1 Ba/F3 cells, sequence (P22607 23-806 limits assumed, change not shown): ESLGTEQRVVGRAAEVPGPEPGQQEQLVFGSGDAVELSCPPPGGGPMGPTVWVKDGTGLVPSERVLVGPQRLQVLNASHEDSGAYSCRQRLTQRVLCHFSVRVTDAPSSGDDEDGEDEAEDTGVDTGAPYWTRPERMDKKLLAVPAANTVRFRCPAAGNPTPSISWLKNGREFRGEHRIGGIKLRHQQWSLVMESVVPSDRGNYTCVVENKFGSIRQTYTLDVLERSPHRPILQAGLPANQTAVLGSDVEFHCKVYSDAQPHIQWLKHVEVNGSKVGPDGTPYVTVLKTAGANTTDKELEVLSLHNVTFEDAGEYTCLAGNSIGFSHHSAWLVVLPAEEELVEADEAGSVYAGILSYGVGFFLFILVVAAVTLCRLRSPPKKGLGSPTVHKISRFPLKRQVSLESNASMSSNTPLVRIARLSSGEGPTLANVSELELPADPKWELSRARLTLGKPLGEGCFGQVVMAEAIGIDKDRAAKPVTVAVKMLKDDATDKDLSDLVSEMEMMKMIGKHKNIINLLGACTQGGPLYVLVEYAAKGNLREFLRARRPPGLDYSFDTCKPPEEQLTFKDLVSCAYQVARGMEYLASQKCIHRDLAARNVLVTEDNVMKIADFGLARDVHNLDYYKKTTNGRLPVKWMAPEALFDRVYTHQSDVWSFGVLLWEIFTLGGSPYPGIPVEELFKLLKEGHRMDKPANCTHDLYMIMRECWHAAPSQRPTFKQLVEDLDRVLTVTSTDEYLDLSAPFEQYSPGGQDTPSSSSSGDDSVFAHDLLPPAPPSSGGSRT
FGFR3, sequence (P22607 23-806): as the sequence (P22607 23-806 limits assumed, change not shown) above
FGFR1-BCR Ba/F3 cells, sequence (P11362 22-822 limits assumed, change not shown): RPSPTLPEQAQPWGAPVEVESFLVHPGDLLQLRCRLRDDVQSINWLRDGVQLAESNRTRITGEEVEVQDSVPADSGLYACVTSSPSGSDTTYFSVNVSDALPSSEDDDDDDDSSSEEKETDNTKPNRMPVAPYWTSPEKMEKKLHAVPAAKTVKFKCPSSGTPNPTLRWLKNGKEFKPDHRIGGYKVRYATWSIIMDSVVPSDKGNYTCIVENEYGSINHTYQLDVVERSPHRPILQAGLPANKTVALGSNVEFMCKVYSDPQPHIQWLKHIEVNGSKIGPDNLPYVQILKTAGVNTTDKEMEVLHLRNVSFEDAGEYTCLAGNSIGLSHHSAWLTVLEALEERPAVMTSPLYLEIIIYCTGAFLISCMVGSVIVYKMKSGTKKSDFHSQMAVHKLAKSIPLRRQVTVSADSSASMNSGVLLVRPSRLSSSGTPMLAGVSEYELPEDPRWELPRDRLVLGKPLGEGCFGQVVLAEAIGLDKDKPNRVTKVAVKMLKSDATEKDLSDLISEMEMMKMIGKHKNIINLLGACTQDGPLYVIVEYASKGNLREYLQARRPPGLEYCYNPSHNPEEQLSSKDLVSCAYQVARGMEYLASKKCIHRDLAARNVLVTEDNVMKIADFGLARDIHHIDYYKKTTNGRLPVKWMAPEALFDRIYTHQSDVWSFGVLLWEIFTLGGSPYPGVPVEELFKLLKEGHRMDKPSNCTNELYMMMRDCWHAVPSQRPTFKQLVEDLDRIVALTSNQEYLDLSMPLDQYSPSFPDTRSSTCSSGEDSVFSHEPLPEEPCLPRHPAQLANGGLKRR
FGFR1, sequence (P11362 22-822): as the sequence (P11362 22-822 limits assumed, change not shown) above
FGFR2, sequence (P21802 22-821): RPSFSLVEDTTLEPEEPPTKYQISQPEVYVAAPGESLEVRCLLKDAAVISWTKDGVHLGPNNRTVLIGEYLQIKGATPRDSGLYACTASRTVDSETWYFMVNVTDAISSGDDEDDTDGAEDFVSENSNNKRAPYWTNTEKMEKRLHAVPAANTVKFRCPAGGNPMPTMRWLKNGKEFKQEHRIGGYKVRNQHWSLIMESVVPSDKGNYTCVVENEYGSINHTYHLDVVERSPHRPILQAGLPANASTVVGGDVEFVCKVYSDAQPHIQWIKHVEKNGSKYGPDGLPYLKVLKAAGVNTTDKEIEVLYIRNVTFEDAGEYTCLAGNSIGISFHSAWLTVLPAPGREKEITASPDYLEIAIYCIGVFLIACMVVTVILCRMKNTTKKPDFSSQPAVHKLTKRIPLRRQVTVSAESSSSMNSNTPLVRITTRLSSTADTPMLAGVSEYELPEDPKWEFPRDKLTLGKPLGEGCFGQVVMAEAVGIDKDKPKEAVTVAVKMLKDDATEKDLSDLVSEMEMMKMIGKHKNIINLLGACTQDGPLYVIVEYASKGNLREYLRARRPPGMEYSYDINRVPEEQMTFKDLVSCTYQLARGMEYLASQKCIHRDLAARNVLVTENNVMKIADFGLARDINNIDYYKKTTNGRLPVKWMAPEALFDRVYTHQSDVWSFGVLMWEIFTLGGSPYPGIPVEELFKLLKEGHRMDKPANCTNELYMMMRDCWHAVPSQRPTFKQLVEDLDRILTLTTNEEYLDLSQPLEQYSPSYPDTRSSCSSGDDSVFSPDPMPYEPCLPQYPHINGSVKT
FGFR4, sequence (P22455 22-802): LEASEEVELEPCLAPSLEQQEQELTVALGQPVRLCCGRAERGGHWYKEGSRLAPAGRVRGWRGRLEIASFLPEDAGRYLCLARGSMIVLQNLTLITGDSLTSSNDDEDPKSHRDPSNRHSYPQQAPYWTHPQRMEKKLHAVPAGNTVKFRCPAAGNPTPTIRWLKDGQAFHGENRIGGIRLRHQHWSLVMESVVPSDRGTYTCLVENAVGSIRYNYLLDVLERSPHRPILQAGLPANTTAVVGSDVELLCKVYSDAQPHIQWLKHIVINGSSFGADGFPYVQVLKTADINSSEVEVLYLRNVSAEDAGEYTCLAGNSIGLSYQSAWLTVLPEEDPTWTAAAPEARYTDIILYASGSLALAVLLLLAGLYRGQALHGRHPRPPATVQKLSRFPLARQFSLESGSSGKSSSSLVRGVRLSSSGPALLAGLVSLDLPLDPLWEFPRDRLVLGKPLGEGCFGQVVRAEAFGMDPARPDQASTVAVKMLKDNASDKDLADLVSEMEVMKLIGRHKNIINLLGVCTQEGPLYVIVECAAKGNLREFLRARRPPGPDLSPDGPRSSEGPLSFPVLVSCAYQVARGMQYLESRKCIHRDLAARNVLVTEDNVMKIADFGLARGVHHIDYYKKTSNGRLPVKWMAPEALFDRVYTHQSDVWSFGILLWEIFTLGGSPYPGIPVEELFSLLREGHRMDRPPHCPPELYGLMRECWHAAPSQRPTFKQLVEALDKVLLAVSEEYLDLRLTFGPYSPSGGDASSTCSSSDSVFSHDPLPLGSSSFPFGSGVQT
FGFR3 (V555M), sequence (P22607 23-806 V555M): as the sequence (P22607 23-806 limits assumed, change not shown) above, with V533M counted along it

SMILES	Ba/F3 FGFR1/FGFR3 Selectivity [1]	IC50 [1]	Kd [2]	Kd [3]	Kd [4]	Kd [5]	Kd [6]	IC50 [7]
C[C@@H](Oc1ccc2[nH]nc(-c3ccc(N4CCC5(CCC(=O)N5C)CC4)nc3)c2c1)c1c(Cl)cncc1Cl [Example 40, 8-[5-[5-[(1R)-1-(3,5-dichloro-4-pyridyl)ethoxy]-1H-indazol-3-yl]-2-pyridyl]-1-methyl-1,8-diazaspiro[4.5]decan-2-one]	30	1 to 20 nM	1 to 20 nM	1 to 20 nM	1 to 20 nM	1 to 20 nM	1 to 20 nM	20 to 100 nM
C[C@@H](Oc1ccc2[nH]nc(-c3cnc(N4CCC5(CCC(=O)N5C)CC4)c(F)c3)c2c1)c1c(Cl)cncc1Cl [Example 43, 8-[5-[5-[(1R)-1-(3,5-dichloro-4-pyridyl)ethoxy]-1H-indazol-3-yl]-3-fluoro-2-pyridyl]-1-methyl-1,8-diazaspiro[4.5]decan-2-one]	10	1 to 20 nM	1 to 20 nM	1 to 20 nM	1 to 20 nM	1 to 20 nM	1 to 20 nM	20 to 100 nM
C[C@@H](Oc1ccc2[nH]nc(-c3cnc(N4CCC5(CC4)C(=O)NCCN5C)c(F)c3)c2c1)c1c(Cl)cncc1Cl [Example 44, 9-[5-[5-[(1R)-1-(3,5-dichloro-4-pyridyl)ethoxy]-1H-indazol-3-yl]-3-fluoro-2-pyridyl]-1-methyl-1,4,9-triazaspiro[5.5]undecan-5-one]	–	1 to 20 nM	1 to 20 nM	1 to 20 nM	1 to 20 nM	1 to 20 nM	1 to 20 nM	20 to 100 nM
C[C@@H](Oc1ccc2[nH]nc(-c3cnc(N4CCC5(CC4)CNC(=O)N5)nc3)c2c1)c1c(Cl)cncc1Cl [Example 53, 8-[5-[5-[(1R)-1-(3,5-dichloro-4-pyridyl)ethoxy]-1H-indazol-3-yl]pyrimidin-2-yl]-1,3,8-triazaspiro-[4.5]decan-2-one]	11	20 to 100 nM	20 to 100 nM	20 to 100 nM	1 to 20 nM	1 to 20 nM	1 to 20 nM	100 to 300 nM
C[C@@H](Oc1ccc2[nH]nc(-c3cnc(N4CCC5(CCNC5=O)CC4)nc3)c2c1)c1c(Cl)cncc1Cl [Example 55, 8-[5-[5-[(1R)-1-(3,5-dichloro-4-pyridyl)ethoxy]-1H-indazol-3-yl]pyrimidin-2-yl]-2,8-diazaspiro-[4.5]decan-1-one]	16	20 to 100 nM	20 to 100 nM	20 to 100 nM	1 to 20 nM	1 to 20 nM	1 to 20 nM	> 300 nM
C[C@@H](Oc1ccc2[nH]nc(-c3cnc(N4CCC5(CCCN5)CC4)nc3)c2c1)c1c(Cl)cncc1Cl [Example 56, 8-[5-[5-[(1R)-1-(3,5-dichloro-4-pyridyl)ethoxy]-1H-indazol-3-yl]pyrimidin-2-yl]-1,8-diazaspiro[4.5]decane]	5	20 to 100 nM	1 to 20 nM	20 to 100 nM	1 to 20 nM	1 to 20 nM	1 to 20 nM	> 300 nM
C[C@@H](Oc1ccc2[nH]nc(-c3cnc(N4CCC5(CC4)CCS(=O)(=O)C5)nc3)c2c1)c1c(Cl)cncc1Cl [Example 57, 8-[5-[5-[(1R)-1-(3,5-dichloro-4-pyridyl)ethoxy]-1H-indazol-3-yl]pyrimidin-2-yl]-2λ^6-thia-8-azaspiro[4.5]decane 2,2-dioxide]	15	1 to 20 nM	20 to 100 nM	20 to 100 nM	1 to 20 nM	1 to 20 nM	1 to 20 nM	100 to 300 nM
C[C@@H](Oc1ccc2[nH]nc(-c3cnc(N4CCC5(CC4)C(=O)NCCN5C)nc3)c2c1)c1c(Cl)cncc1Cl [Example 58, 9-[5-[5-[(1R)-1-(3,5-dichloro-4-pyridyl)ethoxy]-1H-indazol-3-yl]pyrimidin-2-yl]-1-methyl-1,4,9-triazaspiro[5.5]undecan-5-one]	11	20 to 100 nM	20 to 100 nM	20 to 100 nM	1 to 20 nM	1 to 20 nM	1 to 20 nM	100 to 300 nM
C[C@@H](Oc1ccc2[nH]nc(-c3cnc(N4CCCN(C(N)=O)CC4)nc3)c2c1)c1c(Cl)cncc1Cl [Example 62, 4-[5-[5-[(1R)-1-(3,5-Dichloro-4-pyridyl)ethoxy]-1H-indazol-3-yl]pyrimidin-2-yl]-1,4-diazepane-1-carboxamide]	8	20 to 100 nM	20 to 100 nM	20 to 100 nM	1 to 20 nM	1 to 20 nM	1 to 20 nM	> 300 nM
C[C@@H](Oc1ccc2[nH]nc(-c3cnc(N4CCCN(S(C)(=O)=O)CC4)nc3)c2c1)c1c(Cl)cncc1Cl [Example 63, 5-[(1R)-1-(3,5-Dichloro-4-pyridyl)ethoxy]-3-[2-(4-methylsulfonyl-1,4-diazepan-1-yl)pyrimidin-5-yl]-1H-indazole]	16	20 to 100 nM	20 to 100 nM	20 to 100 nM	1 to 20 nM	1 to 20 nM	1 to 20 nM	> 300 nM
C[C@@H](Oc1ccc2[nH]nc(-c3cnn(C4CCNCC4)c3)c2c1)c1c(Cl)cncc1Cl [Example 64, 5-[(1R)-1-(3,5-dichloro-4-pyridyl)ethoxy]-3-[1-(4-piperidyl)pyrazol-4-yl]-1H-indazole]	16	1 to 20 nM	1 to 20 nM	1 to 20 nM	1 to 20 nM	1 to 20 nM	1 to 20 nM	100 to 300 nM
C[C@@H](Oc1ccc2[nH]nc(-c3cnn(C4CCN(C(=O)N(C)C)CC4)c3)c2c1)c1c(Cl)cncc1Cl [Example 67, 4-[4-[5-[(1R)-1-(3,5-dichloro-4-pyridyl)ethoxy]-1H-indazol-3-yl]pyrazol-1-yl]-N,N-dimethyl-piperidine-1-carboxamide]	12	1 to 20 nM	1 to 20 nM	1 to 20 nM	1 to 20 nM	1 to 20 nM	1 to 20 nM	20 to 100 nM
C[C@@H](Oc1ccc2[nH]nc(-c3cnn(C4CCN(C(N)=O)CC4)c3)c2c1)c1c(Cl)cncc1Cl [Example 68, 4-[4-[5-[(1R)-1-(3,5-dichloro-4-pyridyl)ethoxy]-1H-indazol-3-yl]pyrazol-1-yl]piperidine-1-carboxamide]	–	1 to 20 nM	1 to 20 nM	1 to 20 nM	1 to 20 nM	1 to 20 nM	1 to 20 nM	100 to 300 nM
C[C@@H](Oc1ccc2[nH]nc(-c3ccc(C4CCN(S(C)(=O)=O)CC4)nc3)c2c1)c1c(Cl)cncc1Cl [Example 70, 5-[(1R)-1-(3,5-dichloro-4-pyridyl)ethoxy]-3-[6-(1-methylsulfonyl-4-piperidyl)-3-pyridyl]-1H-indazole]	20	1 to 20 nM	1 to 20 nM	1 to 20 nM	1 to 20 nM	1 to 20 nM	1 to 20 nM	20 to 100 nM
C[C@@H](Oc1ccc2[nH]nc(-c3ccc(C4CCN(C(=O)N(C)C)CC4)nc3)c2c1)c1c(Cl)cncc1Cl [Example 71, 4-[5-[5-[(1R)-1-(3,5-dichloro-4-pyridyl)ethoxy]-1H-indazol-3-yl]-2-pyridyl]-N,N-dimethyl-piperidine-1-carboxamide]	15	1 to 20 nM	1 to 20 nM	1 to 20 nM	1 to 20 nM	1 to 20 nM	1 to 20 nM	20 to 100 nM
